Laboratory results as given in publication PMC10877416 (Translational Oncology, 2024).
Bridge positions count the residues as written; N and C are the ends. Square brackets hold non-standard residues; d marks the D form. Ends that are not written are not given here. Peptide text beside a SMILES is read from it. * marks the point of attachment. Biotin = O=C1N[C@H]2[C@H](CS[C@H]2CCCCC(=O)*)N1; Nle = CCCC[C@H](N)C(=O)O; Abu = CC[C@H](N)C(=O)O

Legend:
[1] = Solubility in water; assay type: physicochemical
Excerpt: To increase solubility, its sequence was elongated at the N- and C-terminals by adding hydrophilic amino acids from the protein sequence. […] These modifications were introduced to prevent the oxidation of methionine and cysteine.

[2] = target: T1, PD-1/PD-L1 complex (Homo sapiens, UniProt Q15116); test: PD-1 T cell NF-κB::eGFP reporter co-culture assay; assay type: cell-based; details: PD-1 reporter cells + TCS CD86/PD-L1; peptide 150.00-5.56 µM; 90 min preincubation, 24 h co-culture; flow cytometry; normalized to PD-1 reporter/TCS CD86
T1 construct: expressed in transfected cells
Description: Moreover, NF-κB-eGFP activation (signal 2) is enhanced by the interaction of CD86 on TCS with CD28 on modified Jurkat cells. […] The peptides were tested at concentrations between 150.00 and 5.56 µM.
The experiment was performed on 96-well tissue culture-treated transparent plates by using RPMI 1640 medium containing 10 % FBS. The cells were seeded into the wells at the density of 5 × 10^4 cells/well for reporter cells and 2 × 10^4 cells/well for TCS cell lines. The peptides were prepared in three-fold serial dilutions in concentrations ranging from 150.00 to 5.56 μM and were preincubated with the reporter cells for 90 min. Subsequently, cells of the second cell line were added; co-culture was performed for 24 h at 37°C under a 5 % CO2 atmosphere. […] After 24 h, the cells were harvested, stained with APC-conjugated mCD45.2 mAb to exclude TCS from the analysis, and eGFP expression was measured by flow cytometry. The mean and standard deviation values of the gMFI of the viable cell population were determined. The experiment was performed at least three times in duplicate. […] The flow cytometry analysis was performed on a FACSCalibur flow cytometer (Becton Dickinson Immunocytometry System, USA) by using CellQuest software. Data were analysed with FlowJo (version 10.0.6, Tree Star, Ashland, OR) and GraphPad Prism (version 8, GraphPad Software, Inc., La Jolla, CA).

[3] = target: T2, PD-1 (Homo sapiens, UniProt Q15116); test: SPR analysis: PD-1 titrated over immobilized biotinylated peptides or PD-L1; assay type: binding; details: SPR KD 198 µM versus 2.04 µM
T2 construct: purchased Recepton Company, Poland R1–001–03
Description: To obtain the kinetic parameters of the peptide/protein interaction the SPR technique was used.
Biacore T200 equipment (Cytiva, Marlborough, USA) was used to perform SPR analysis according to the manufacturer's protocol. […] All measurements were performed using PBS-P as a running buffer; the flow rate was set to 30 μl/min at 25°C. The chip was regenerated with 1.5 M NaCl and 10 mM glycine pH 3. The obtained data were analysed using Biacore T200 Evaluation Software (Cytiva, Marlborough, USA).
Results were calculated using Biacore T200 Evaluation Software, from at least three independent titration analyses. The 1:1 binding model was applied.

[4] = Peptide stability in RPMI 1640 medium with 10 % FBS; details: RPMI 1640 + 10 % heat-inactivated FBS; for Additional decrease in peptide content after 24 h of incubation: 37°C; for Stability in the medium: 0 and 24 h
Description: Samples were collected at 0 h and after 24 h of incubation and analysed by RP-HPLC. The peptide content in the samples was determined by comparing the corresponding peak areas to those of control samples, which constituted the corresponding peptides dissolved in H2O at 0 h. The conditions selected for the stability experiment were intended to simulate those used for cellular research.
Samples were prepared by dissolving the peptides in H2O and adding them to the medium in the ratio of 1:3 (v:v). The final concentration of the peptides in the sample was 100 μM. The samples before analysis were collected at two time points: 0 h and 24 h of incubation (37°C with continuous stirring). The samples were then frozen in liquid N2 and stored at -80°C until the end of the experiment. Prior to analysis, the samples were thawed on ice, suspended in a 4-fold excess of absolute ethanol (v:v), and centrifuged (15,000 rpm, 4°C, 20 min). The supernatant was then transferred to test tubes, evaporated using a vacuum concentrator, then dissolved in 100 μl of 0.1 % trifluoroacetic acid (TFA) in H2O. The analysis was performed by analytical RP-HPLC using a Luna C18(2) (250 mm × 4.6 mm, 5 μm) column and a linear gradient from 5 % B to 100 % B in A over 60 min (A: 0.1 % TFA in H2O; B: 0.08 % TFA in 80 % ACN in H2O). Peptides that dissolved in H2O and the medium with 10 % FBS (without peptides) were used as controls.

[5] = system: TCS Ctrl cells; test: Cell viability assay (CellTiter-Glo), TCS Ctrl cells; assay type: cell-based; details: highest tested concentration, 24 h
Description: (§2) The influence of the peptides on Jurkat E6.1 cells and genetically modified BW5417 (T cell stimulators, TCS Ctrl) cells was subsequently examined. […] Cell viability was measured after 24 h of incubation with peptide concentrations ranging from 150.00 to 5.56 µM. The CellTiter-Glo® luminescence-based assay was used to estimate the number of viable cells. This test allowed determination of adenosine triphosphate (ATP), which is related to the metabolically active cells and proportional to the number of living cells . The results were compared and normalized to untreated cells (Fig. 5A).
(§3) Cell line viability was examined on two cell lines – Jurkat E6.1 cells and TCS Ctrl cells. The experiments were performed on 96-well solid white plates for cell culture. Jurkat E6.1 cells and TCS Ctrl cells were seeded into wells on the day of the experiment at the density of 2 × 10^4 cells per well in 50 µl RPMI 1640 medium containing 10 % FBS. Subsequently, 50 µl of peptides at 150 to 1.90 µM concentrations were added to the wells. Cell viability was measured using 100 µl of Cell Titter-Glo (Promega Corporation, #G7570) added to the wells. Luminescence was measured on a Spark M10 plate reader (Tecan, Switzerland) with an integration time of 0.5 s. The experiment was performed at least three times, and the results were analysed by GraphPad Prism 8 software.

[6] = system: Jurkat E6.1 cells; test: Cell viability assay (CellTiter-Glo), Jurkat E6.1 cells; details: 24 h; for Effect on Jurkat E6.1 cells at lower concentrations: concentrations below the highest tested (150.00 to 5.56 µM range); for Number of living, metabolically active Jurkat E6.1 cells: highest tested concentration (150.00 µM), normalized to untreated cells, three experiments in triplicate
Description: as §2, §3

[7] = system: murine primary lymphocytes and Jurkat cells; details: cited from earlier work
Description: (§1) To better examine the potency of the PD-L1-derived peptides at the cellular level, competitive assays and stimulation assays were performed. […] These differences in obtained results may be due to the fact that in SPR and ELISA, the peptide is immobilized to the surface of the sensor or the plate, while it is in the solution in cellular assays. Moreover, the immobilization of the peptide may ...

[8] = system: Jurkat E6.1 and HCT-116 cells; details: co-culture model with activated Jurkat E6.1 and HCT-116 cells; cited from earlier work
Description: as §1

[9] = target: T3, PD-1 (Recepton) (human, UniProt Q15116 25-170); test: SPR; Biacore T200; biotinylated peptides (~800 RU; L1 ~500 RU) or biotinylated PD-L1 immobilised on an SA sensor chip; PD-1 injected at 10 to 0.31 µM; PBS-P running buffer, 30 µl/min, 25°C; details: both partners purified
T3 construct: also called PD-1 protein; source: bought: Recepton Company, Poland, #R1–001–03

[10] = pH 8.0, 100 μM peptide, RP-HPLC

T3 sequence (Q15116 25-170): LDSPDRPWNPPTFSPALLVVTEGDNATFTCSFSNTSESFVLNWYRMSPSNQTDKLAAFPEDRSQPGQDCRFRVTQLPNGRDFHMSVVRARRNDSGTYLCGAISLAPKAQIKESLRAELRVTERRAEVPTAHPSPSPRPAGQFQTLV
T1 sequence (Q15116 25-288, one chain of several): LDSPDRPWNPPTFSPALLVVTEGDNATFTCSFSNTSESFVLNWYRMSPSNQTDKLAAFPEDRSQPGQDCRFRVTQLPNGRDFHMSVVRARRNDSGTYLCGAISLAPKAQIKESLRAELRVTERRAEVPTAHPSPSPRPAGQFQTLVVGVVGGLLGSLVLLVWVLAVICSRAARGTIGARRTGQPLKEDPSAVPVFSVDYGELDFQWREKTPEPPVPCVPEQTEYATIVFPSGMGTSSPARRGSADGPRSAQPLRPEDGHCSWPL
T2 sequence (Q15116 25-288): as the sequence (Q15116 25-288, one chain of several) above

For `CCCC[C@H](NC(=O)[C@H](CCC(=O)O)NC(=O)[C@H](Cc1c[nH]c2ccccc12)NC(=O)[C@H](Cc1ccc(O)cc1)NC(=O)[C@@H](NC(=O)[C@@H](NC(=O)[C@H](CC(C)C)NC(=O)[C@H](C)NC(C)=O)[C@@H](C)CC)C(C)C)C(=O)N[C@@H](CCC(=O)O)C(=O)N[C@@H](CC(=O)O)C(=O)N[C@@H](CCCCN)C(=O)N[C@@H](CC(N)=O)C(=O)N[C@H](C(=O)N[C@H](C(=O)N[C@@H](CCC(N)=O)C(=O)N[C@@H](Cc1ccccc1)C(=O)N[C@H](C(=O)N[C@@H](Cc1c[nH]cn1)C(=O)NCC(=O)N[C@@H](CCC(=O)O)C(=O)N[C@@H](CCC(=O)O)C(=O)N[C@@H](CC(=O)O)C(N)=O)C(C)C)[C@@H](C)CC)[C@@H](C)CC` [Peptide L3] (HELM PEPTIDE1{[ac].A.L.I.V.Y.W.E.[Nle].E.D.K.N.I.I.Q.F.V.H.G.E.E.D.[am]}$$$$V2.0), the “Solubility in water” value [1] was “no positive effect on the solubility”.

For `CCCC[C@H](NC(=O)[C@H](CCC(=O)O)NC(=O)[C@H](Cc1c[nH]c2ccccc12)NC(=O)[C@H](Cc1ccc(O)cc1)NC(=O)[C@@H](NC(=O)[C@@H](NC(=O)[C@H](CC(C)C)NC(=O)[C@H](C)NC(C)=O)[C@@H](C)CC)C(C)C)C(=O)N[C@@H](CCC(=O)O)C(=O)N[C@@H](CC(=O)O)C(=O)N[C@@H](CCCCN)C(=O)N[C@@H](CC(N)=O)C(=O)N[C@H](C(=O)N[C@H](C(=O)N[C@@H](CCC(N)=O)C(=O)N[C@@H](Cc1ccccc1)C(=O)N[C@H](C(=O)N[C@@H](Cc1c[nH]cn1)C(=O)NCC(=O)N[C@@H](CCC(=O)O)C(=O)N[C@@H](CCC(=O)O)C(=O)N[C@@H](CC(=O)O)C(=O)N[C@@H](CC(C)C)C(=O)N[C@@H](CCCCN)C(=O)N[C@H](C(=O)N[C@@H](CCC(N)=O)C(=O)N[C@@H](Cc1c[nH]cn1)C(=O)N[C@@H](CO)C(N)=O)C(C)C)C(C)C)[C@@H](C)CC)[C@@H](C)CC` [Peptide L4] (HELM PEPTIDE1{[ac].A.L.I.V.Y.W.E.[Nle].E.D.K.N.I.I.Q.F.V.H.G.E.E.D.L.K.V.Q.H.S.[am]}$$$$V2.0), the “Solubility in water” value [1] was “no positive effect on the solubility”.

With `CCCC[C@H](NC(=O)[C@H](CCC(=O)O)NC(=O)[C@H](Cc1c[nH]c2ccccc12)NC(=O)[C@H](Cc1ccc(O)cc1)NC(=O)[C@@H](NC(=O)[C@@H](NC(=O)[C@H](CC(C)C)NC(=O)[C@H](C)NC(=O)[C@H](C)NC(=O)[C@H](CC(C)C)NC(=O)[C@H](CC(=O)O)NC(=O)[C@H](CC(C)C)NC(=O)[C@H](CCC(N)=O)NC(=O)[C@H](CCCCN)NC(=O)[C@H](CCC(=O)O)NC(C)=O)[C@@H](C)CC)C(C)C)C(=O)N[C@@H](CCC(=O)O)C(=O)N[C@@H](CC(=O)O)C(=O)N[C@@H](CCCCN)C(=O)N[C@@H](CC(N)=O)C(=O)N[C@H](C(=O)N[C@H](C(=O)N[C@@H](CCC(N)=O)C(=O)N[C@@H](Cc1ccccc1)C(=O)N[C@H](C(N)=O)C(C)C)[C@@H](C)CC)[C@@H](C)CC` [Peptide L5] (HELM PEPTIDE1{[ac].E.K.Q.L.D.L.A.A.L.I.V.Y.W.E.[Nle].E.D.K.N.I.I.Q.F.V.[am]}$$$$V2.0) the “Solubility in water” value [1] was “no positive effect on the solubility”.

In the case of `CCCC[C@H](NC(=O)[C@H](CCC(=O)O)NC(=O)[C@H](Cc1c[nH]c2ccccc12)NC(=O)[C@H](Cc1ccc(O)cc1)NC(C)=O)C(=O)N[C@@H](CCC(=O)O)C(=O)N[C@@H](CC(=O)O)C(=O)N[C@@H](CCCCN)C(=O)N[C@@H](CC(N)=O)C(=O)N[C@H](C(=O)N[C@H](C(=O)N[C@@H](CCC(N)=O)C(N)=O)[C@@H](C)CC)[C@@H](C)CC` [Peptide L6] (HELM PEPTIDE1{[ac].Y.W.E.[Nle].E.D.K.N.I.I.Q.[am]}$$$$V2.0), the “Solubility in water” value [1] is reported as “no positive effect on the solubility”.

For `CCCC[C@H](NC(=O)[C@H](CC)NC(=O)[C@H](CCCNC(=N)N)NC(=O)[C@H](Cc1ccc(O)cc1)NC(=O)[C@@H](NC(C)=O)C(C)C)C(=O)N[C@H](C(=O)N[C@@H](CO)C(=O)N[C@@H](Cc1ccc(O)cc1)C(=O)NCC(=O)NCC(=O)N[C@@H](C)C(=O)N[C@@H](CC(=O)O)C(=O)N[C@@H](Cc1ccc(O)cc1)C(=O)N[C@@H](CCCCN)C(=O)N[C@@H](CCCNC(=N)N)C(=O)N[C@H](C(=O)N[C@H](C(N)=O)[C@@H](C)O)[C@@H](C)CC)[C@@H](C)CC` [Peptide L7] (HELM PEPTIDE1{[ac].V.Y.R.[Abu].[Nle].I.S.Y.G.G.A.D.Y.K.R.I.T.[am]}$$$$V2.0), the “Restoration of eGFP expression in the reporter assay” value [2] was “concentration-dependent effect” and the “KD of (L7) relative to (L11), fold weaker” value [3] was “approximately 97 fold”.

With `CCCC[C@@H]1NC(=O)[C@@H](NC(=O)[C@H](CCCNC(=N)N)NC(C)=O)CSSC[C@@H](C(=O)N[C@@H](CCCNC(=N)N)C(=O)N[C@H](C(N)=O)[C@@H](C)CC)NC(=O)[C@H](Cc2ccc(O)cc2)NC(=O)[C@H](CC(=O)O)NC(=O)[C@H](C)NC(=O)[C@H](CO)NC(=O)CNC(=O)[C@H](Cc2ccc(O)cc2)NC(=O)[C@H](CO)NC(=O)[C@H]([C@@H](C)CC)NC1=O` [Peptide L12] the “Decrease in the amount of peptide at 0 h compared to control” value ([4]; pH 8.0, 100 μM peptide, 0 h, RP-HPLC) was “approximately 10%”, the “Additional decrease in peptide content after 24 h of incubation” value [4, 10] was roughly 11% and the “Stability in the medium” value ([4]; RP-HPLC) was “highest stability”. For the same molecule, the “Effect on TCS Ctrl cell viability” value [5] was “significant decrease in cell viability”, the “Effect on Jurkat E6.1 cells at lower concentrations” value [6] was “no negative effects at lower concentrations” and the “Number of living, metabolically active Jurkat E6.1 cells” value [6] was 38%.

With `CCCC[C@@H]1NC(=O)[C@@H](NC(=O)[C@H](CCCNC(=N)N)NC(C)=O)CSSC[C@@H](C(=O)N[C@@H](CCCNC(=N)N)C(=O)N[C@H](C(N)=O)[C@@H](C)CC)NC(=O)[C@H](Cc2ccc(O)cc2)NC(=O)[C@H](CC(=O)O)NC(=O)[C@H](C)NC(=O)[C@H](Cc2ccccc2)NC(=O)CNC(=O)[C@H](Cc2ccc(O)cc2)NC(=O)[C@H](CO)NC(=O)[C@H]([C@@H](C)CC)NC1=O` [Peptide L13] the “Effect on Jurkat E6.1 cells at lower concentrations” value [6] was “no negative effects at lower concentrations” and the “Number of living, metabolically active Jurkat E6.1 cells” value [6] was 3%.

In the case of `CC(=O)N[C@@H](C)C(=O)N[C@@H](CC(=O)O)C(=O)N[C@@H](Cc1ccc(O)cc1)C(=O)N[C@@H](CCCCN)C(=O)N[C@@H](CCCNC(=N)N)C(N)=O` [Peptide L15] (Ac-ADYKR-NH2), the “Restoration of eGFP expression in the reporter assay” value [2] is reported as “concentration-dependent effect”, the “Amount of peptide at 0 h, relative to control” value ([4]; pH 8.0, 100 μM peptide, 0 h, RP-HPLC peak area vs peptide in H2O at 0 h, three independent experiments) is reported as 88% and the “Additional decrease in peptide content after 24 h of incubation” value [4, 10] is reported as 12%. For the same molecule, the “Stability in the medium” value ([4]; RP-HPLC) was “least concentration fluctuation”.

In the case of GADYKRITVKVN [PL120131], the “Apoptotic signal induced by sPD-L1” value [7] is given as “reverses the apoptotic signal”.

For “RTMIWYpGAWYKRI [Peptide P1.3, Wang et al. peptide with D-proline in the loop and a tryptophan zipper]”, the “IL-2 secretion” value [8] is listed as “has the ability to restore IL-2 secretion”.

In the case of Biotin-GGGGGGCYR[Abu][Nle]ISYGGADYKRICV (disulfide 7-23) [biotin-GGGGG-PD-L1(110–128)^(V111C-T127C) (L10)], the Kd [9] is reported as 22 µM.

Molecule Biotin-GGGGGR[Abu][Nle]ISYGGADYKRI [biotin-GGGGG-PD-L1(113–126) (L8)] has a Kd [9] of 14.9 µM.

For Biotin-GGGGGVYR[Abu][Nle]ISYGGADYKRIT [biotin-GGGGG-PD-L1(111–127) (L7)], the Kd [9] was 198 µM.
